Laboratory results: US5763404A, “Methods for using LHRH antagonists with low histamine release” (priority 1995, dated 1998)
Starred links: 1 amine or outer side, 2 acyl side, 3 side chain; linkers in the order of their positions; H or OH if unused. Non-standard residues stand in square brackets, D forms with d. Residues, ends and D or L forms follow the SMILES beside them. *: point of attachment. dAla(cis-4-NHCOPyz-cHex) = N[C@H](C[C@H]1CC[C@@H](NC(=O)c2cnccn2)CC1)C(=O)O; X3 = O=C(N[C@H]1CC[C@H](C[C@@H](N[*:1])C(=O)[*:2])CC1)c1cnccn1; dPhe(3,4-Cl2) = N[C@H](Cc1ccc(Cl)c(Cl)c1)C(=O)O; X9 = CN=C(NCCC[C@H](N[*:1])C(=O)[*:2])N(C)C; dPhe(4-Cl) = N[C@H](Cc1ccc(Cl)cc1)C(=O)O; Pyrimidin2yl(4,6-Me2) = Cc1cc(C)nc(*)n1; d2Nal = N[C@H](Cc1ccc2ccccc2c1)C(=O)O; dLys(iPr) = CC(C)NCCCC[C@@H](N)C(=O)O; Nicotinoyl(6-Me) = Cc1ccc(C(=O)*)cn1; Lys(iPr) = CC(C)NCCCC[C@H](N)C(=O)O; Orn(iPr) = CC(C)NCCC[C@H](N)C(=O)O; d3Pal = N[C@H](Cc1cccnc1)C(=O)O; Nicotinoyl = O=C(c1cccnc1)*; Picolinoyl = O=C(c1ccccn1)*; Nle = CCCC[C@H](N)C(=O)O; Orn = NCCC[C@H](N)C(=O)O; Me2Gly = CN(C)CC(=O)*; X12 = O=C(c1ccncn1)*

Test system: anaesthesized rats
Assay: wheal test, intradermal injection
Type: in vivo, rat
Set-up: Wheal (wheal response): unit not given here
Details: 10 ug peptide intradermally
In short: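 Anaesthetized rats given intradermal injection of 10 ug peptide in 100 ul saline; area of the wheal calculated from its diameter.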

Row | Wheal Area [mm^2 /10 μg] | SMILES
1 | 101.7 ± 5.0 | CC(=O)N[C@H](Cc1ccc2ccccc2c1)C(=O)N[C@H](Cc1ccc(Cl)cc1)C(=O)N[C@H](Cc1cccnc1)C(=O)N[C@@H](CO)C(=O)N[C@@H](CCCCNC(=O)c1cccnc1)C(=O)N[C@H](C[C@H]1CC[C@@H](NC(=O)c2cnccn2)CC1)C(=O)N[C@@H](CC(C)C)C(=O)N[C@@H](CCCCNC(C)C)C(=O)N1CCC[C@H]1C(=O)N[C@H](C)C(N)=O [compound 25806] (Ac-[d2Nal][dPhe(4-Cl)][d3Pal]SK(Nicotinoyl)[dAla(cis-4-NHCOPyz-cHex)]L[Lys(iPr)]P[dA]-NH2)
2 | 113.0 ± 0 | CC(=O)N[C@H](Cc1ccc2ccccc2c1)C(=O)N[C@H](Cc1ccc(Cl)cc1)C(=O)N[C@H](Cc1cccnc1)C(=O)N[C@@H](CO)C(=O)N[C@@H](CCCCNC(=O)c1ccccn1)C(=O)N[C@H](CCCCNC(=O)c1ccccn1)C(=O)N[C@@H](CC(C)C)C(=O)N[C@@H](CCCNC(C)C)C(=O)N1CCC[C@H]1C(=O)N[C@H](C)C(N)=O [compound 25933] (Ac-[d2Nal][dPhe(4-Cl)][d3Pal]SK(Picolinoyl)[dK](Picolinoyl)L[Orn(iPr)]P[dA]-NH2)
3 | 78.5 ± 0 | CC(=O)N[C@H](Cc1ccc2ccccc2c1)C(=O)N[C@H](Cc1ccc(Cl)cc1)C(=O)N[C@H](Cc1cccnc1)C(=O)N[C@@H](CO)C(=O)N[C@@H](CCCCNC(=O)c1ccccn1)C(=O)N[C@H](CCCCNC(=O)c1ccccn1)C(=O)N[C@@H](Cc1c[nH]c2ccccc12)C(=O)N[C@@H](CCCCNC(C)C)C(=O)N1CCC[C@H]1C(=O)N[C@H](C)C(N)=O [compound 25935] (Ac-[d2Nal][dPhe(4-Cl)][d3Pal]SK(Picolinoyl)[dK](Picolinoyl)W[Lys(iPr)]P[dA]-NH2)
4 | 119.6 ± 8.5 | CC(=O)N[C@H](Cc1ccc2ccccc2c1)C(=O)N[C@H](Cc1ccc(Cl)cc1)C(=O)N[C@H](Cc1cccnc1)C(=O)N[C@@H](CO)C(=O)N[C@@H](CCCCNC(=O)c1ccccn1)C(=O)N[C@H](C[C@H]1CC[C@@H](NC(=O)c2cnccn2)CC1)C(=O)N[C@@H](CC(C)C)C(=O)N[C@@H](CCCNC(=N)N)C(=O)N1CCC[C@H]1C(=O)N[C@H](C)C(N)=O [compound 26347] (Ac-[d2Nal][dPhe(4-Cl)][d3Pal]SK(Picolinoyl)[dAla(cis-4-NHCOPyz-cHex)]LRP[dA]-NH2)
5 | 95.0 ± 0 | CC(=O)N[C@H](Cc1ccc2ccccc2c1)C(=O)N[C@H](Cc1ccc(Cl)cc1)C(=O)N[C@H](Cc1cccnc1)C(=O)N[C@@H](CO)C(=O)N[C@@H](Cc1ccc(O)cc1)C(=O)N[C@H](C[C@H]1CC[C@@H](NC(=O)c2cnccn2)CC1)C(=O)N[C@@H](CC(C)C)C(=O)N[C@@H](CCCCNC(C)C)C(=O)N1CCC[C@H]1C(=O)N[C@H](C)C(N)=O [compound 26418] (Ac-[d2Nal][dPhe(4-Cl)][d3Pal]SY[dAla(cis-4-NHCOPyz-cHex)]L[Lys(iPr)]P[dA]-NH2)
6 | 130.2 ± 2.5 | CC(=O)N[C@H](Cc1ccc2ccccc2c1)C(=O)N[C@H](Cc1ccc(Cl)cc1)C(=O)N[C@H](Cc1cccnc1)C(=O)N[C@@H](CO)C(=O)N[C@@H](CCCCNC(=O)c1ccncn1)C(=O)N[C@H](CCCCNC(=O)c1ccncn1)C(=O)N[C@@H](CC(C)C)C(=O)N[C@@H](CCCCNC(C)C)C(=O)N1CCC[C@H]1C(=O)N[C@H](C)C(N)=O [compound 26322] (Ac-[d2Nal][dPhe(4-Cl)][d3Pal]SK(X12)[dK](X12)L[Lys(iPr)]P[dA]-NH2)
7 | 107.0 ± 6.0 | CCCC[C@H](NC(=O)[C@@H](CCCCNC(=O)c1ccccn1)NC(=O)[C@H](CCCCNC(=O)c1ccccn1)NC(=O)[C@H](CO)NC(=O)[C@@H](Cc1cccnc1)NC(=O)[C@@H](Cc1ccc(Cl)cc1)NC(=O)[C@@H](Cc1ccc2ccccc2c1)NC(C)=O)C(=O)N[C@@H](CCCCNC(C)C)C(=O)N1CCC[C@H]1C(=O)N[C@H](C)C(N)=O [compound 25988] (Ac-[d2Nal][dPhe(4-Cl)][d3Pal]SK(Picolinoyl)[dK](Picolinoyl)[Nle][Lys(iPr)]P[dA]-NH2)
8 | 101.6 ± 2.2 | CC(=O)N[C@H](Cc1ccc2ccccc2c1)C(=O)N[C@H](Cc1ccc(Cl)cc1)C(=O)N[C@H](Cc1cccnc1)C(=O)N[C@@H](CO)C(=O)N[C@@H](CCCCNC(=O)c1ccccn1)C(=O)N[C@H](C[C@H]1CC[C@@H](NC(=O)c2cnccn2)CC1)C(=O)N[C@@H](CC(C)C)C(=O)N[C@@H](CCCNC(C)C)C(=O)N1CCC[C@H]1C(=O)N[C@H](C)C(N)=O [IBR 26181] (Ac-[d2Nal][dPhe(4-Cl)][d3Pal]SK(Picolinoyl)[dAla(cis-4-NHCOPyz-cHex)]L[Orn(iPr)]P[dA]-NH2)
9 | 116.2 ± 3.7 | CC(=O)N[C@H](Cc1ccc(Cl)c(Cl)c1)C(=O)N[C@H](Cc1ccc(Cl)cc1)C(=O)N[C@H](Cc1cccnc1)C(=O)N[C@@H](CO)C(=O)N[C@@H](CCCCNC(=O)c1ccccn1)C(=O)N[C@H](CCCCNC(=O)c1ccccn1)C(=O)N[C@@H](CC(C)C)C(=O)N[C@@H](CCCCNC(C)C)C(=O)N1CCC[C@H]1C(=O)N[C@H](C)C(N)=O [compound 26100] (Ac-[dPhe(3,4-Cl2)][dPhe(4-Cl)][d3Pal]SK(Picolinoyl)[dK](Picolinoyl)L[Lys(iPr)]P[dA]-NH2)
10 | 129.6 ± 8.8 | CC(=O)N[C@H](Cc1ccc2ccccc2c1)C(=O)N[C@H](Cc1ccc(Cl)cc1)C(=O)N[C@H](Cc1cccnc1)C(=O)N[C@@H](CO)C(=O)N[C@@H](CCCCNC(=O)c1cccnc1)C(=O)N[C@H](C[C@H]1CC[C@H](NC(=O)c2cnccn2)CC1)C(=O)N[C@@H](CC(C)C)C(=O)N[C@@H](CCCCNC(C)C)C(=O)N1CCC[C@H]1C(=O)N[C@H](C)C(N)=O [compound 25805] (Ac-[d2Nal][dPhe(4-Cl)][d3Pal]SK(Nicotinoyl)[X3]L[Lys(iPr)]P[dA]-NH2)

Same assay, conditions: Table I; 10 ug peptide intradermally

Row | Wheal [mm^2 /10] | SMILES
11 | 122.8 ± 5.8 | CC(=O)N[C@H](Cc1ccc2ccccc2c1)C(=O)N[C@H](Cc1ccc(Cl)cc1)C(=O)N[C@H](Cc1cccnc1)C(=O)N[C@@H](CO)C(=O)N[C@@H](Cc1ccc(O)cc1)C(=O)N[C@H](CCCCNC(C)C)C(=O)N[C@@H](CC(C)C)C(=O)N[C@@H](CCCCNC(=O)c1cccnc1)C(=O)N1CCC[C@H]1C(=O)N[C@H](C)C(N)=O [compound 24824] (Ac-[d2Nal][dPhe(4-Cl)][d3Pal]SY[dLys(iPr)]LK(Nicotinoyl)P[dA]-NH2)
12 | 139.7 ± 0 | CC(=O)N[C@H](Cc1ccc2ccccc2c1)C(=O)N[C@H](Cc1ccc(Cl)cc1)C(=O)N[C@H](Cc1cccnc1)C(=O)N[C@@H](CO)C(=O)N[C@@H](Cc1c[nH]cn1)C(=O)N[C@H](CCCCNC(=O)c1cccnc1)C(=O)N[C@@H](CC(C)C)C(=O)N[C@@H](CCCNC(=N)N)C(=O)N1CCC[C@H]1C(=O)N[C@H](C)C(N)=O [compound 24545] (Ac-[d2Nal][dPhe(4-Cl)][d3Pal]SH[dK](Nicotinoyl)LRP[dA]-NH2)
13 | 110 ± 3 | CC(=O)N[C@H](Cc1ccc2ccccc2c1)C(=O)N[C@H](Cc1ccc(Cl)cc1)C(=O)N[C@H](Cc1cccnc1)C(=O)N[C@@H](CO)C(=O)N[C@@H](CCCCNC(=O)CN(C)C)C(=O)N[C@H](CCCCNC(=O)c1cccnc1)C(=O)N[C@@H](CC(C)C)C(=O)N[C@@H](CCCCNC(C)C)C(=O)N1CCC[C@H]1C(=O)N[C@H](C)C(N)=O [compound 25509] (Ac-[d2Nal][dPhe(4-Cl)][d3Pal]SK(Me2Gly)[dK](Nicotinoyl)L[Lys(iPr)]P[dA]-NH2)
14 | 140 ± 7.0 | CN=C(NCCC[C@H](NC(=O)[C@H](CO)NC(=O)[C@@H](Cc1cccnc1)NC(=O)[C@@H](Cc1ccc(Cl)cc1)NC(=O)[C@@H](Cc1ccc2ccccc2c1)NC(C)=O)C(=O)N[C@H](CCCCNC(=O)c1cccnc1)C(=O)N[C@@H](CC(C)C)C(=O)N[C@@H](CCCCNC(C)C)C(=O)N1CCC[C@H]1C(=O)N[C@H](C)C(N)=O)N(C)C [compound 24931] (Ac-[d2Nal][dPhe(4-Cl)][d3Pal]S[X9][dK](Nicotinoyl)L[Lys(iPr)]P[dA]-NH2)
15 | 122.8 ± 5.7 | CC(=O)N[C@H](Cc1ccc2ccccc2c1)C(=O)N[C@H](Cc1ccc(Cl)cc1)C(=O)N[C@H](Cc1cccnc1)C(=O)N[C@@H](CO)C(=O)N[C@@H](CCCCNC(=O)c1cccnc1)C(=O)N[C@H](CCCCNC(=O)c1cccnc1)C(=O)N[C@@H](CC(C)C)C(=O)N[C@@H](CCCCNC(=O)c1cccnc1)C(=O)N1CCC[C@H]1C(=O)N[C@H](C)C(N)=O [compound 24596] (Ac-[d2Nal][dPhe(4-Cl)][d3Pal]SK(Nicotinoyl)[dK](Nicotinoyl)LK(Nicotinoyl)P[dA]-NH2)
16 | 146.8 | CC(=O)N[C@H](Cc1ccc2ccccc2c1)C(=O)N[C@H](Cc1ccc(Cl)cc1)C(=O)N[C@H](Cc1cccnc1)C(=O)N[C@@H](CO)C(=O)N[C@@H](CCCNC(=N)N)C(=O)N[C@H](CCCCNC(=O)c1cccnc1)C(=O)N[C@@H](CC(C)C)C(=O)N[C@@H](CCCNC(=N)N)C(=O)N1CCC[C@H]1C(=O)N[C@H](C)C(N)=O [compound 24199] (Ac-[d2Nal][dPhe(4-Cl)][d3Pal]SR[dK](Nicotinoyl)LRP[dA]-NH2)
17 | 113.6 | CC(=O)N[C@H](Cc1ccc2ccccc2c1)C(=O)N[C@H](Cc1ccc(Cl)cc1)C(=O)N[C@H](Cc1cccnc1)C(=O)N[C@@H](CO)C(=O)N[C@@H](CCCCNC(=O)c1cccnc1)C(=O)N[C@H](CCCCNC(=O)c1cccnc1)C(=O)N[C@@H](CC(C)C)C(=O)N[C@@H](CCCNc1nc(C)cc(C)n1)C(=O)N1CCC[C@H]1C(=O)N[C@H](C)C(N)=O [compound 25143] (Ac-[d2Nal][dPhe(4-Cl)][d3Pal]SK(Nicotinoyl)[dK](Nicotinoyl)L[Orn](Pyrimidin2yl(4,6-Me2))P[dA]-NH2)
18 | 126.1 | CC(=O)N[C@H](Cc1ccc2ccccc2c1)C(=O)N[C@H](Cc1ccc(Cl)cc1)C(=O)N[C@H](Cc1cccnc1)C(=O)N[C@@H](CO)C(=O)N[C@@H](CCCCNC(=O)c1ccc(C)nc1)C(=O)N[C@H](CCCCNC(=O)c1ccc(C)nc1)C(=O)N[C@@H](CC(C)C)C(=O)N[C@@H](CCCCNC(C)C)C(=O)N1CCC[C@H]1C(=O)N[C@H](C)C(N)=O [compound 25386] (Ac-[d2Nal][dPhe(4-Cl)][d3Pal]SK(Nicotinoyl(6-Me))[dK](Nicotinoyl(6-Me))L[Lys(iPr)]P[dA]-NH2)

Same assay, conditions: Table XIV and text, unit not given

Row | Wheal (wheal response) | SMILES
19 | 113.0 ± 0 | CC(=O)N[C@H](Cc1ccc2ccccc2c1)C(=O)N[C@H](Cc1ccc(Cl)cc1)C(=O)N[C@H](Cc1cccnc1)C(=O)N[C@@H](CO)C(=O)N[C@@H](CCCCNC(=O)c1ccccn1)C(=O)N[C@H](CCCCNC(=O)c1ccccn1)C(=O)N[C@@H](CC(C)C)C(=O)N[C@@H](CCCNC(C)C)C(=O)N1CCC[C@H]1C(=O)N[C@H](C)C(N)=O [compound 25933] (Ac-[d2Nal][dPhe(4-Cl)][d3Pal]SK(Picolinoyl)[dK](Picolinoyl)L[Orn(iPr)]P[dA]-NH2)
